According to ChEMBL document CHEMBL5537136 (J Med Chem, 2024):

Assays:
[1] = target: T1, Protein mono-ADP-ribosyltransferase PARP10 (Homo sapiens, UniProt Q53GL7); experiment: Inhibition of PARP10 (unknown origin) measured after 1 hr incubation by microplate reader assay
T1 sequence (Q53GL7 whole entry): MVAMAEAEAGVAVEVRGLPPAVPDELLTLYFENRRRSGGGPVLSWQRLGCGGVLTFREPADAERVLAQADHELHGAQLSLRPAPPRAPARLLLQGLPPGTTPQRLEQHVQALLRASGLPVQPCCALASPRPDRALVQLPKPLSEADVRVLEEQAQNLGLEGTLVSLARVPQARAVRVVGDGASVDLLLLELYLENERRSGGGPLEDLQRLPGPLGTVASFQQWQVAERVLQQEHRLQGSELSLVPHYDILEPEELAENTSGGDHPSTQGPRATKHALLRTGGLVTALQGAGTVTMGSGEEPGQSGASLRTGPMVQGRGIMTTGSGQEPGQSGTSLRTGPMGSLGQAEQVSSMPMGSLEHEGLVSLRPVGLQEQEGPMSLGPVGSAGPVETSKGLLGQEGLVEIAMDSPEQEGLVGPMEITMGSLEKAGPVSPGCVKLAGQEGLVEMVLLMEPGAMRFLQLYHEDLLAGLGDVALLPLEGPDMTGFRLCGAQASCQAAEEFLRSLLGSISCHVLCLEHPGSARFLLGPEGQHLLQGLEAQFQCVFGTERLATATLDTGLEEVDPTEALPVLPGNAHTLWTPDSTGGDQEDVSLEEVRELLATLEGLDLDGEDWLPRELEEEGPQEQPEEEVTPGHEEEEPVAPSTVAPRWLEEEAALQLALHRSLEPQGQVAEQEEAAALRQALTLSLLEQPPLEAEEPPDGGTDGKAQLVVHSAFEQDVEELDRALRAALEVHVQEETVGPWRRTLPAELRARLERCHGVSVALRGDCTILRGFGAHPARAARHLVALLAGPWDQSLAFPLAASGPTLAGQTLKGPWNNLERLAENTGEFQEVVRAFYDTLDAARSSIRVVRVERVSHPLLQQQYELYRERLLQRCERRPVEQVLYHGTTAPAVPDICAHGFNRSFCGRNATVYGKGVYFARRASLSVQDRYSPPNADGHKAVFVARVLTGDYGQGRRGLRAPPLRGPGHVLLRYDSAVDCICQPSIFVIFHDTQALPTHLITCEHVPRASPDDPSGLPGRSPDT

[2] = target: T2, Protein mono-ADP-ribosyltransferase TIPARP (Mus musculus) (UniProt Q8C1B2); experiment: Inhibition of PARP7 in mouse CT26 cells assessed as increase in TBK1 phosphorylation incubated for 3 days by Western blot analysis; type: cell-based; conditions: dose 0.14-4 µM, time 3.0 day
T2 sequence (whole entry): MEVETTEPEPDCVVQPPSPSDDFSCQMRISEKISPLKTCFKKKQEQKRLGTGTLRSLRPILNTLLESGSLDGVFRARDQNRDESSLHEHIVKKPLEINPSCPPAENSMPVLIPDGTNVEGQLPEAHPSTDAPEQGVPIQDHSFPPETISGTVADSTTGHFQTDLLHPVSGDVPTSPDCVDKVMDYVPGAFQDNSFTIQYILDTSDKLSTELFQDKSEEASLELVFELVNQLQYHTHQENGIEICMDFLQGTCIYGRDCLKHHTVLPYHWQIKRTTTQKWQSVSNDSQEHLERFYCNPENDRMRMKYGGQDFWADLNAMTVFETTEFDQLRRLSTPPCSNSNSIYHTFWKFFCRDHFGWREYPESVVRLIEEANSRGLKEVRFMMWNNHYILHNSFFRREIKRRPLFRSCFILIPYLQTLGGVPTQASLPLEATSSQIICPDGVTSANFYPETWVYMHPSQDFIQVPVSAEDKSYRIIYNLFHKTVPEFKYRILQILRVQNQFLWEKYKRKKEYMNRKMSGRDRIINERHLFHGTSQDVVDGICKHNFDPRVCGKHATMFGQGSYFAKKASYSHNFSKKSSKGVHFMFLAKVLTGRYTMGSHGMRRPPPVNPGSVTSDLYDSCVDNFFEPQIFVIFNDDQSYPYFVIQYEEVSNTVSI

[3] = target: CYP3A4/5 (Homo sapiens, UniProt P08684+P20815); experiment: Inhibition of CYP3A4/5 (unknown origin); type: ADME, protein assay
[4] = MRT (0 to infinity) in ICR mouse at 10 mg/kg, IG measured upto 24 hrs by LC-MS/MS analysis; type: ADME, organism-based; conditions: in vivo, po
[5] = Acute toxicity in ICR mouse assessed as change in body weight at 1000 mg/kg, po measured after 7 days; type: organism-based; conditions: in vivo, 168 h, time 7 day

## C[C@@H](C(=O)N1CCN(c2ncc(C(F)(F)F)cn2)CC1)n1cc2cccc(C(N)=O)c2n1
[1]
  IC50: 377 nM
[2]
  inhibition: Dose-Dependent Effect
[3]
  IC50: > 30 µM
[4]
  MRT inf: 2.52 h
[5]
  Activity: Non-Toxic
